Results: patent US11655243B2, “Pyridine and pyrazine derivatives as preferential cannabinoid 2 agonists” (HOFFMANN-LA ROCHE INC., priority 2018, dated 2023)

Target: human CNR2 receptors (CB2 receptor) (Homo sapiens (Human), UniProt P34972)
Assay: Radioligand binding assay, human CB2 (CNR2)
Details: membranes of HEK cells expressing human CNR2, 2.6 nM [3H]-CP-55,940 radioligand; read-out: Binding assay human CB2 Ki
Protocol: Radioligand Binding Assay
The affinity of the compounds of the invention for cannabinoid CB1 receptors was determined using recommended amounts of membrane preparations (PerkinElmer) of human embryonic kidney (HEK) cells expressing the human CNR1 or CNR2 receptors in conjunction with 1.5 or 2.6 nM [3H]-CP-55,940 (Perkin Elmer) as radioligand, respectively. Binding was performed in binding buffer (50 mM Tris, 5 mM MgCl2, 2.5 mM EDTA, and 0.5% (wt/vol) fatty acid free BSA, pH 7.4 for CB1 receptor and 50 mM Tris, 5 mM MgCl2, 2.5 mM EGTA, and 0.1% (wt/vol) fatty acid free BSA, pH 7.4 for CB2 receptor) in a total volume of 0.2 ml for 1 h at 30° C. shaking. The reaction was terminated by rapid filtration through microfiltration plates coated with 0.5% polyethylenimine (UniFilter GFB filter plate; Packard). Bound radioactivity was analyzed for Ki using nonlinear regression analysis (Activity Base, ID Business Solution, Limited), with the Kd values for [3H]CP55,940 determined from saturation experiments. The compounds of formula (I) show an excellent affinity for the CB2 receptor.
The compounds according to formula (I) have an activity in the above assay (Ki) between 0.5 nM and 10 μM. Particular compounds of formula (I) have an activity in the above assay (Ki) between 0.5 nM and 3 μM. Other particular compounds of formula (I) have an activity in the above assay (Ki) between 0.5 nM and 100 nM.

human CNR2 receptors (CB2 receptor), sequence (P34972 whole entry): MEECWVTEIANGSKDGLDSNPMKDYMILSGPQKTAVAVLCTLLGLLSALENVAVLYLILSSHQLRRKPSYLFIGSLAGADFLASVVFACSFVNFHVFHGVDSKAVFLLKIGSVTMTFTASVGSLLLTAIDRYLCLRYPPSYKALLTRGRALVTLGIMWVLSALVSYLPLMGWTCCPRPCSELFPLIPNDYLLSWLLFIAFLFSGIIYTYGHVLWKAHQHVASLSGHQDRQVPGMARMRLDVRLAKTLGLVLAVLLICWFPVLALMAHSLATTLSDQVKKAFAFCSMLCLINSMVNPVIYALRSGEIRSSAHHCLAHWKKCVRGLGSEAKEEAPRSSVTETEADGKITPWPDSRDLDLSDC

For `CCC(CC)(NC(=O)c1ccc(N2CCCC2)c(OCC2(CO)COC2)n1)C(=O)OCCCF` [Example 35, 3-Fluoropropyl 2-ethyl-2-(6-((3-(hydroxymethyl)oxetan-3-yl)methoxy)-5-(pyrrolidin-1-yl)picolinamido)butanoate], the Ki was 1390 nM.
